Series [1] deals with T1, von Hippel-Lindau disease tumor suppressor/Cyclin-dependent kinase 12 (Homo sapiens, UniProt P40337+Q9NYV4). Put plainly: PROTAC activity at VHL/CDK12 in human HeLa cells assessed as induction of CDK12 degradation measured after 24 hrs by fluorescence based cytoblot assay. Type of series: cell-based.
Series [2] concerns the target T1, von Hippel-Lindau disease tumor suppressor/Cyclin-dependent kinase 12. Put plainly: PROTAC activity at VHL/CDK12 in human HeLa cells assessed as induction of CDK12 degradation measured after 24 hrs by Western blotting analysis. It is filed as cell-based. (In general: Immunoblotting shows a protein as a band on a membrane.)
Another series relates to HeLa. Put plainly: Antiproliferative activity against human HeLa cells assessed as inhibition of cell growth measured after 96 hrs by SRB assay. Type of series: functional, cell-based.
Series [3] relates to MDA-MB-231. Briefly: Antiproliferative activity against human MDA-MB-231 cells assessed as inhibition of cell growth measured after 96 hrs by SRB assay. Type of series: functional, cell-based. Conditions: MDA-MB-231, 96 h. (In general: Sulforhodamine B stains cellular protein and so reports cell mass.)
For a further series, the system named is Bel-7402. Put plainly: Antiproliferative activity against human Bel-7402 cells assessed as inhibition of cell growth measured after 96 hrs by SRB assay. It is filed as functional, cell-based. The following applies: Bel-7402, 96 h.
The next series concerns HCT-116. Put plainly: Antiproliferative activity against human HCT-116 cells assessed as inhibition of cell growth measured after 96 hrs by SRB assay. The following applies: HCT-116, 96 h. It is filed as functional, cell-based.
A short description of series [4]: Cytotoxicity against human L02 cells assessed as inhibition of cell growth measured after 96 hrs by SRB assay. It is filed as toxicity, cell-based.
The test system of series [5] is MDA-MB-231. Put plainly: Synergistic antiproliferative activity against human MDA-MB-231 cells assessed as combination index at 500 nM incubated for 14 days in presence of olaparib by sulforhodamine B staining based Chou-Talalay method. It is filed as functional. The following applies: time 14 day.
For series [6], the target named is Protein cereblon/Cyclin-dependent kinase 12 (Homo sapiens) (UniProt Q9NYV4+Q96SW2). Briefly: PROTAC activity at CRBN/CDK12 in human HeLa cells assessed as induction of CDK12 degradation measured after 24 hrs by fluorescence based cytoblot assay. It is filed as cell-based.
Chain of Protein cereblon/Cyclin-dependent kinase 12 (Homo sapiens) (Q96SW2 whole entry, looked up): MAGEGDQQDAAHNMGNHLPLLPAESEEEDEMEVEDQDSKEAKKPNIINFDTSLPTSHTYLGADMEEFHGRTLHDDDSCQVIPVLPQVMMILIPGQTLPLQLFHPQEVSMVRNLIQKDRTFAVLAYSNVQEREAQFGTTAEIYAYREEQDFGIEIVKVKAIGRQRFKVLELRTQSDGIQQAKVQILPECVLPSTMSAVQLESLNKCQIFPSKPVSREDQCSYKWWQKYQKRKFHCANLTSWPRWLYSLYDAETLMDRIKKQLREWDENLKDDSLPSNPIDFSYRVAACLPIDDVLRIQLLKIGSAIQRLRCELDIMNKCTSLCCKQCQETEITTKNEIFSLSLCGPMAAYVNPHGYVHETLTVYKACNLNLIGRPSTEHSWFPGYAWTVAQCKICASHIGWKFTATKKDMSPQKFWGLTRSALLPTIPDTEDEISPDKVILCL
Chain of Protein cereblon/Cyclin-dependent kinase 12 (Homo sapiens) (Q9NYV4 whole entry, looked up): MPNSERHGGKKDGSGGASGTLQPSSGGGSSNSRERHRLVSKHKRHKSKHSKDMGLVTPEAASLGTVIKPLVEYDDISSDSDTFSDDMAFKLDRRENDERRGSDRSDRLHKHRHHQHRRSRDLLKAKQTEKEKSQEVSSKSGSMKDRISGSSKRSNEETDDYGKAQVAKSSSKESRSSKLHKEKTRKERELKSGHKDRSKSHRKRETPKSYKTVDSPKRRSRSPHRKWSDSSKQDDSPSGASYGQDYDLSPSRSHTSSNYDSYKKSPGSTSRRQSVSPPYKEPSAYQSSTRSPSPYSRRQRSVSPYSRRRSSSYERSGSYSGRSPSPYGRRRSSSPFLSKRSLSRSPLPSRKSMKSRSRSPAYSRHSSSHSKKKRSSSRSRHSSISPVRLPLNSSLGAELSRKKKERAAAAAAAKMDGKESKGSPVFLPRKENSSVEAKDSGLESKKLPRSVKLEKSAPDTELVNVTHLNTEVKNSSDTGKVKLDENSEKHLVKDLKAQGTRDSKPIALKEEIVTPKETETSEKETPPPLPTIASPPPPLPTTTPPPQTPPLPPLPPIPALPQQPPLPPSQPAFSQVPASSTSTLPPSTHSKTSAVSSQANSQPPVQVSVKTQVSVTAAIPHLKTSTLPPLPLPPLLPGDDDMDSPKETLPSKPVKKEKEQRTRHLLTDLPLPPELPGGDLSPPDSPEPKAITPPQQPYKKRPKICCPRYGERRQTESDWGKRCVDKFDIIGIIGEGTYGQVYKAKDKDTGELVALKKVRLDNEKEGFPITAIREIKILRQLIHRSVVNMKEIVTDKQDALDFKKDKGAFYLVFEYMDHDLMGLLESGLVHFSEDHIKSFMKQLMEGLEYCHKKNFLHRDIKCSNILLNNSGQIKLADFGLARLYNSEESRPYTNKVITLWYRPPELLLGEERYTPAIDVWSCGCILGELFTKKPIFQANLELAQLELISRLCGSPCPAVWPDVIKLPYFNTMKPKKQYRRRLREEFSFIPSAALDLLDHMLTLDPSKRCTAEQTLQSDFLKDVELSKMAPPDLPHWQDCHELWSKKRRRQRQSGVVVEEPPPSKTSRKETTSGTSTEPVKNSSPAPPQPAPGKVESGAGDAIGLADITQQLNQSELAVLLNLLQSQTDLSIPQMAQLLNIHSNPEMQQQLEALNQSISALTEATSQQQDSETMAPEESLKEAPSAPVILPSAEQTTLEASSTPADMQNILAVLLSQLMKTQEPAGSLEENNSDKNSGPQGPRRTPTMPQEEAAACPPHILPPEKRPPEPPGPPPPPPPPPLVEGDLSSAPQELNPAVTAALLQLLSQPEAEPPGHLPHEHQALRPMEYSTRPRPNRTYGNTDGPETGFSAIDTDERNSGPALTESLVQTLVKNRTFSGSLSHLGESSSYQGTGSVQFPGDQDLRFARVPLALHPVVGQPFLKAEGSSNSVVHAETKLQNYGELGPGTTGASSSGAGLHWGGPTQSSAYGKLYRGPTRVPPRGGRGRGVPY

Active and inactive are the calls of the source. The calls are words filed in the database; no cut-off is given here.

For orientation: DC50 means the midpoint of the concentration-degradation curve. One may read the IC50 as the concentration that gives 50% inhibition.

T1 sequence (P40337 whole entry): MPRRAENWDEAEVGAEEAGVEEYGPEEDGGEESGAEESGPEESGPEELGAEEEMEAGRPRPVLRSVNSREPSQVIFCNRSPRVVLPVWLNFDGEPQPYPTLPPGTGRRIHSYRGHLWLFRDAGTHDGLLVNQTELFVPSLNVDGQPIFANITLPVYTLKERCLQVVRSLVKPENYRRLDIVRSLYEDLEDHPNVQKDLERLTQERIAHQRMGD
T1 sequence (Q9NYV4 whole entry): as the sequence (Q9NYV4 whole entry, looked up) above

For `Cc1ncsc1-c1ccc([C@H](C)NC(=O)[C@@H]2C[C@@H](O)CN2C(=O)[C@@H](NC(=O)CCCCCCNC(=O)CN2CCC[C@@H](Nc3ncc(Cl)c(Nc4ccccc4S(=O)(=O)C(C)C)n3)C2)C(C)(C)C)cc1`, the DC50 was found to be 74 nM in series [1] and 85 nM in [2]. Also, the IC50 in the series on HeLa is 316 nM; in the series on MDA-MB-231 [3], 468 nM; in the series with Bel-7402, 491 nM; in the series on HCT-116, 665 nM. For the same molecule, in series [4], the half-inhibitory concentration (IC50) at 96 h was over 1000 nM. Besides, the CI with MDA-MB-231 [5] stood at 0.17.

On to `CC(C)S(=O)(=O)c1ccccc1Nc1nc(N[C@@H]2CCCN(CCCCc3cn(CCCCCCCOc4cccc5c4C(=O)N(C4CCC(=O)NC4=O)C5=O)nn3)C2)ncc1Cl` (some centres not stated), for which, in [6], the result was Active.

Take `CN(C)C/C=C/C(=O)Nc1ccc(C(=O)N2CCC[C@@H](Nc3ncc(Cl)c(-c4c[nH]c5ccccc45)n3)C2)cc1`: the IC50 in the series on HeLa turned out to be 106 nM; in the series with MDA-MB-231 [3], 133 nM; in the series on Bel-7402, 650 nM; in the series on HCT-116, 89 nM. Also, the concentration for half-maximal inhibition (IC50) at 96 h in series [4] amounted to 119 nM.

For `CC(C)S(=O)(=O)c1ccccc1Nc1nc(N[C@@H]2CCCN(CCCCc3cn(CCCCCCCOc4ccc5c(c4)C(=O)N(C4CCC(=O)NC4=O)C5=O)nn3)C2)ncc1Cl` (some centres not stated), in series [6], the outcome was Active.

For `CC(C)S(=O)(=O)c1ccccc1Nc1nc(N[C@@H]2CCCN(CCCCCCCNC(=O)COc3cccc4c3C(=O)N(C3CCC(=O)NC3=O)C4=O)C2)ncc1Cl` (some centres not stated), the DC50 in [1] was found to be 57 nM; in series [2], 83 nM.

These data come from ChEMBL document CHEMBL5346915, “A practical "preTACs-cytoblot" platform accelerates the streamlined development of PROTAC-based protein degraders” (Eur J Med Chem, 2023).
